Data from patent publication US11274104B2, “Crystal forms of thiophene derivatives” (Tianjin Hemay Pharmaceutical Co., Ltd, priority 2018, dated 2022).

Key:
Assay type in all cases: physicochemical
[1] = High temperature stability (40° C., 1 month)
Description: (§1) Crystal form II of (S)—N-[5-[1-(3-ethoxy-4-methoxyphenyl)-2-(methylsulfonyl)ethyl]-4,6-dioxo-5,6-dihydro-4H-thieno[3,4-c]pyrrole-1-yl]acetamide prepared according to the process of Example 1 was placed at 40° C. (high temperature). After 1 month, liquid chromatogram and DSC were tested.

[2] = Accelerated stability (40° C., RH 75%, 1 month)
Description: as §1, with “placed in a stability text box” for “placed”, “and Rh=75%.” for “(high temperature).”

[3] = Illumination stability (4500 lux, 1 month); conditions: liquid chromatogram
Description: as §1, with “in a 4500 lux of illumination box for” for “at 40° C. (high temperature). After”, “month. Liquid” for “month, liquid”, “tested after 1 month.” for “tested.”

Grinding stability = conditions: grinding in a glass mortar for 5 minutes
Description: Crystal form II of (S)—N-[5-[1-(3-ethoxy-4-methoxyphenyl)-2-(methylsulfonyl)ethyl]-4,6-dioxo-5,6-dihydro-4H-thieno[3,4-c]pyrrole-1-yl]acetamide prepared according to the process of Example 1 was ground in a glass mortar for 5 minutes. The ground samples were tested with XRPD.

[4] = Pressure stability (tablet press); conditions: single punch tablet press, tablet 6 mm, hardness 25-30 N; DSC (FIG. 5)
Description: Crystal form II of (S)—N-[5-[1-(3-ethoxy-4-methoxyphenyl)-2-(methylsulfonyl)ethyl]-4,6-dioxo-5,6-dihydro-4H-thieno[3,4-c]pyrrole-1-yl]acetamide was pressed by tablet press machine with single punch. The diameter of the tablet was 6 mm and the hardness was 25-30 N. DSC test was carried out on pressed powder.

Hygroscopicity (RH=80%) = experiment: Hygroscopicity (RH=80%)
Description: Hygroscopicity of crystal form II of (S)—N-[5-[1-(3-ethoxy-4-methoxyphenyl)-2-(methylsulfonyl)ethyl]-4,6-dioxo-5,6-dihydro-4H-thieno[3,4-c]pyrrole-1-yl]acetamide was studied. Crystal form II of (S)—N-[5-[1-(3-ethoxy-4-methoxyphenyl)-2-(methylsulfonyl)ethyl]-4,6-dioxo-5,6-dihydro-4H-thieno[3,4-c]pyrrole-1-yl]acetamide was placed in a drier containing saturated ammonium chloride solution (RH=80%) until weight was balanced. The crystal form was tested with XRPD.
Crystal form II of (S)—N-[5-[1-(3-ethoxy-4-methoxyphenyl)-2-(methylsulfonyl)ethyl]-4,6-dioxo-5,6-dihydro-4H-thieno[3,4-c]pyrrole-1-yl]acetamide prepared according to the process of Example 1 was tested.

[5] = day 0, before storage at 40° C., liquid chromatogram
[6] = storage at 40° C., 1 month, liquid chromatogram

stability under high temperature conditions (in words) ([1]; 40° C., 1 month): good stability | Relevant Substance Contents at Day 0 (%) [1, 5]: 0.10% | Relevant Substance Contents after 1 Month (%) [1, 6]: 0.12% | stability under high-temperature and high-humidity conditions (in words) ([2]; 40° C., 1 month): good stability | Relevant Substance Contents at Day 0 (%) [2, 5]: 0.11% | Relevant Substance Contents after 1 Month (%) [2, 6]: 0.11% | Relevant Substance Contents after 1 Month (%) ([3]; 4500 lux, 1 month): 0.06% | Relevant Substance Contents at Day 0 (%) ([3]; day 0, before illumination at 4500 lux): 0.06% | grinding stability (in words) (Grinding stability): good grinding stability | pressure stability (in words) [4]: good stability | hygroscopicity (in words) (Hygroscopicity (RH=80%); RH=80%): hardly absorbed moisture | Weight Increase (Hygroscopicity (RH=80%); RH=80% (saturated ammonium chloride solution) until weight balanced, mAPI 0.497 g): -0.001 g | Moisture Absorption (%) (Hygroscopicity (RH=80%); RH=80% until weight balanced): 0% | Crystal Form after Absorbing Moisture (Hygroscopicity (RH=80%); RH=80% until weight balanced, XRPD): did not change
Structure (SMILES): CCOc1cc([C@@H](CS(C)(=O)=O)N2C(=O)c3csc(NC(C)=O)c3C2=O)ccc1OC [crystal form II, (S)—N-[5-[1-(3-ethoxy-4-methoxyphenyl)-2-(methylsulfonyl)ethyl]-4,6-dioxo-5,6-dihydro-4H-thieno[3,4-c]pyrrole-1-yl]acetamide]
